Laboratory results taken from US11104648B2, “Pyrazole derivative” (Zhejiang Research Institute of Chemical Industry Co., Ltd., priority 2018, dated 2021).
Read-outs that look alike come from different tables or passages of the source.

Legend:
Type in all cases: in vivo
[1] = tested on: Eggs of Tetranychus Cinnabarinus; test: Activity assay of eggs of Tetranychus cinnabarinus (spray method, ovicidal); settings: Tetranychus cinnabarinus; for pest or weed control at 2 µg/mL: concentration 2 mg/L
How it was run: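 Female mites laid eggs on broad bean leaves for 24 h, adults removed, eggs sprayed with compound in DMF (≤10%)/1‰ Tween 80. Held at 26±2° C, 70–80% humidity, 16 h light; unhatched eggs counted dead once blank control hatched. Three replicates.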

[2] = tested on: Tetranychus cinnabarinus Nymphs; test: Activity assay of Tetranychus cinnabarinus nymphs (spray on broad bean leaves)
How it was run: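 Compound in DMF (≤10%) diluted in 1‰ Tween 80 water was sprayed onto broad bean leaves carrying nymphs hatched from eggs laid by female adults over 24 h. Kept at 26±2° C., 70%–80% humidity, 16 h light; mortality (no response to touch) assessed after 48 h, three replicates with blank control.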

[3] = tested on: adult Tetranychus cinnabarinus; test: Activity assay of adult Tetranychus cinnabarinus (whole-plant spray on bean seedlings); settings: 48 h; for pest or weed control at 1.25 µg/mL: concentration 1.25 mg/L
How it was run: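 Bean seedlings at two-true-leaf stage, infested with adult mites and base count taken, sprayed whole-plant with compound in DMF (≤10%) diluted in 1‰ Tween 80. Three replicates per treatment kept in standard observation room. Surviving mites counted at 48 h to give death rate.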

[4] = concentration 5 mg/L, spray, non-incubated eggs counted as dead, read-out: ovicidal activity
[5] = 48 h, concentration 2.5 mg/L, read-out: nymph-killing activity
[6] = concentration 2.5 mg/L, read-out: adult mite-killing activity
[7] = spray, read-out: ovicidal activity
[8] = 48 h, concentration 2 mg/L, read-out: nymph-killing activity
[9] = read-out: adult mite-killing activity
[10] = eggs, parallel determination, read-out: Death rate (%)
[11] = 48 h, nymphs, concentration 0.5 mg/L, parallel determination, read-out: Death rate (%)
[12] = adult mites, parallel determination, read-out: Death rate (%)

SMILES | pest or weed control at 5 µg/mL [1, 4] | pest or weed control at 2.5 µg/mL [2, 5] | pest or weed control at 2.5 µg/mL [3, 6] | also measured
C=CCOC(=O)OCO/C(=C(/C#N)c1ccc(C(C)(C)C)cc1)c1cc(C)nn1C [Compound 474] | ≥ 90% | ≥ 95% | ≥ 90% | 
CCn1nc(C)c(Cl)c1/C(OC(C)OC(C)=O)=C(\C#N)c1ccc(C(C)(C)C)cc1 (centres unmarked) [Compound 326] | ≥ 90% | ≥ 95% | ≥ 90% | pest or weed control at 2 µg/mL [1, 7]: ≥ 90%; pest or weed control at 2 µg/mL [2, 8]: ≥ 90%; pest or weed control at 1.25 µg/mL [3, 9]: ≥ 90%
CCn1nc(C)cc1/C(OC(C)OC(=O)C(C)(C)C)=C(\C#N)c1ccc(C(C)(C)C)cc1 (centres unmarked) [Compound 255] | ≥ 90% | ≥ 95% | ≥ 90% | pest or weed control at 2 µg/mL [1, 7]: ≥ 90%; pest or weed control at 2 µg/mL [1, 10]: 96%; pest or weed control at 2 µg/mL [2, 8]: ≥ 90%; pest or weed control at 0.5 µg/mL [2, 11]: 95%; pest or weed control at 1.25 µg/mL [3, 12]: 95%; pest or weed control at 1.25 µg/mL [3, 9]: ≥ 90%
Cc1cc(/C(OCOC(=O)C2CCCCC2)=C(\C#N)c2ccc(C(C)(C)C)cc2)n(C)n1 [Compound 11] | ≥ 90% | ≥ 95% | ≥ 90% | 
CC(=O)OCOC(=C(C#N)c1ccc(C(C)(C)C)cc1)c1ccccc1C(F)(F)F [Compound 8-2, reference compound] | < 30% | < 80% | < 80% | pest or weed control at 2 µg/mL [1, 7]: 0%; pest or weed control at 2 µg/mL [1, 10]: 0%; pest or weed control at 0.5 µg/mL ([2]; 48 h, concentration 0.5 mg/L, read-out: nymph-killing activity): < 30%; pest or weed control at 0.5 µg/mL [2, 11]: 0%; pest or weed control at 1.25 µg/mL [3, 12]: 30%; pest or weed control at 1.25 µg/mL [3, 9]: < 50%
CCn1nc(C)c(Cl)c1/C(OCOC(=O)C(C)C)=C(\C#N)c1ccc(C(C)(C)C)cc1 [Compound 304] | ≥ 90% | ≥ 95% | ≥ 90% | 
CCCCC(=O)OCO/C(=C(/C#N)c1ccc(C(C)(C)C)cc1)c1cc(C)nn1C [Compound 6] | ≥ 90% | ≥ 95% | ≥ 90% | 
CCC(=O)OCO/C(=C(/C#N)c1ccc(C(C)(C)C)cc1)c1c(Cl)c(C)nn1C [Compound 77] | ≥ 90% | ≥ 95% | ≥ 90% | 
CCn1nc(C)c(Cl)c1/C(OC(C)OC(=O)OC)=C(\C#N)c1ccc(C(C)(C)C)cc1 (centres unmarked) [Compound 771] | ≥ 90% | ≥ 95% | ≥ 90% | pest or weed control at 2 µg/mL [1, 7]: ≥ 90%; pest or weed control at 2 µg/mL [1, 10]: 100%; pest or weed control at 2 µg/mL [2, 8]: ≥ 90%; pest or weed control at 0.5 µg/mL [2, 11]: 95%; pest or weed control at 1.25 µg/mL [3, 12]: 100%; pest or weed control at 1.25 µg/mL [3, 9]: ≥ 90%
CCn1nc(C)c(Cl)c1/C(OC(C)OC(=O)c1ccccc1)=C(\C#N)c1ccc(C(C)(C)C)cc1 (centres unmarked) [Compound 339] | ≥ 90% | ≥ 95% | ≥ 90% | 
CCCCCOC(=O)OC(C)O/C(=C(/C#N)c1ccc(C(C)(C)C)cc1)c1c(Cl)c(C)nn1CC (centres unmarked) [Compound 780] | ≥ 90% | ≥ 95% | ≥ 90% | pest or weed control at 2 µg/mL [1, 7]: ≥ 90%; pest or weed control at 2 µg/mL [2, 8]: ≥ 90%; pest or weed control at 1.25 µg/mL [3, 9]: ≥ 90%
COC(=O)COC(=O)OCO/C(=C(/C#N)c1ccc(C(C)(C)C)cc1)c1cc(C)nn1C [Compound 477] | ≥ 90% | ≥ 95% | ≥ 90% | 
COCCOC(=O)OC(C)O/C(=C(/C#N)c1ccc(C(C)(C)C)cc1)c1cc(C)nn1C (centres unmarked) [Compound 500] | ≥ 90% | ≥ 95% | ≥ 90% | 
Cc1cc(/C(OCOC(=O)Cc2ccccc2)=C(\C#N)c2ccc(C(C)(C)C)cc2)n(C)n1 [Compound 15] | ≥ 90% |  | ≥ 90% | pest or weed control at 2.5 µg/mL ([2]; concentration 2.5 mg/L, 48 h, read-out: nymph-killing activity): ≥ 95%
CCn1nc(C)c(C)c1/C(OC(C)OC(=O)C1CCCCC1)=C(\C#N)c1ccc(C(C)(C)C)cc1 (centres unmarked) [Compound 411] | ≥ 90% | ≥ 95% | ≥ 90% | 
CSCC(=O)OCO/C(=C(/C#N)c1ccc(C(C)(C)C)cc1)c1cc(C)nn1C [Compound 10] | ≥ 90% | ≥ 95% | ≥ 90% | 
Cc1nn(C)c(/C(OCOC(=O)C2CC2)=C(\C#N)c2ccc(C(C)(C)C)cc2)c1Cl [Compound 84] | ≥ 90% | ≥ 95% | ≥ 90% | 
CSCC(=O)OC(C)O/C(=C(/C#N)c1ccc(C(C)(C)C)cc1)c1c(C)c(C)nn1C (centres unmarked) [Compound 185] | ≥ 90% | ≥ 95% | ≥ 90% | 
Cc1nn(C)c(/C(OCOC(=O)C(F)(F)F)=C(\C#N)c2ccc(C(C)(C)C)cc2)c1C [Compound 163] | ≥ 90% | ≥ 95% | ≥ 90% | 
CCn1nc(C)cc1/C(OCOC(=O)OC)=C(\C#N)c1ccc(C(C)(C)C)cc1 [Compound 547] |  |  |  | pest or weed control at 2 µg/mL [1, 7]: ≥ 90%; pest or weed control at 2 µg/mL [1, 10]: 100%; pest or weed control at 2 µg/mL [2, 8]: ≥ 90%; pest or weed control at 0.5 µg/mL [2, 11]: 93%; pest or weed control at 1.25 µg/mL [3, 12]: 100%; pest or weed control at 1.25 µg/mL [3, 9]: ≥ 90%
COC(=O)OC(C)O/C(=C(/C#N)c1ccc(C(C)(C)C)cc1)c1cc(C)nn1C (centres unmarked) [Compound 483] | ≥ 90% | ≥ 95% | ≥ 90% | 
CCC(C)(C)C(=O)OCO/C(=C(/C#N)c1ccc(C(C)(C)C)cc1)c1c(C)c(C)nn1C [Compound 166] | ≥ 90% | ≥ 95% | ≥ 90% | 
CCn1nc(C)cc1/C(OC(C)OC(=O)C1CC1)=C(\C#N)c1ccc(C(C)(C)C)cc1 (centres unmarked) [Compound 259] | ≥ 90% | ≥ 95% | ≥ 90% | pest or weed control at 2 µg/mL [1, 7]: ≥ 90%; pest or weed control at 2 µg/mL [2, 8]: ≥ 90%; pest or weed control at 1.25 µg/mL [3, 9]: ≥ 90%
Cc1nn(C)c(/C(OC(C)OC(=O)CF)=C(\C#N)c2ccc(C(C)(C)C)cc2)c1Cl (centres unmarked) [Compound 112] |  |  |  | pest or weed control at 5 µg/mL ([1]; read-out: ovicidal activity): ≥ 90%; pest or weed control at 2.5 µg/mL ([2]; 48 h, read-out: nymph-killing activity): ≥ 95%; pest or weed control at 2.5 µg/mL [3, 9]: ≥ 90%
CCn1nc(C)c(Cl)c1/C(OC(C)OC(=O)C1CCCCC1)=C(\C#N)c1ccc(C(C)(C)C)cc1 (centres unmarked) [Compound 336] | ≥ 90% | ≥ 95% | ≥ 90% | 
CCOC(=O)OCO/C(=C(/C#N)c1ccc(C(C)(C)C)cc1)c1c(C)c(C)nn1CC [Compound 932] | ≥ 90% | ≥ 95% | ≥ 90% | pest or weed control at 2 µg/mL [1, 7]: ≥ 90%; pest or weed control at 2 µg/mL [1, 10]: 97%; pest or weed control at 2 µg/mL [2, 8]: ≥ 90%; pest or weed control at 1.25 µg/mL [3, 12]: 90%; pest or weed control at 1.25 µg/mL [3, 9]: ≥ 90%
CCn1nc(C)c(Cl)c1/C(OC(C)OC(=O)C(C)(C)CC)=C(\C#N)c1ccc(C(C)(C)C)cc1 (centres unmarked) [Compound 341] | ≥ 90% | ≥ 95% | ≥ 90% | 
CCCCOC(=O)OC(C)O/C(=C(/C#N)c1ccc(C(C)(C)C)cc1)c1cc(C)nn1CC (centres unmarked) [Compound 584] | ≥ 90% | ≥ 95% | ≥ 90% | 
